According to patent US20060035968A1, “Composition for preventing cancer comprising 2'-benzoyl-oxycinnamaldehyde” (Korea Research Institute of Bioscience and Biotechnology, priority 2004, published 2006):
Entries after “also recorded” stand apart in the source; their conditions may differ.

Assays:
tumor cell growth = conditions: J. Biological Chemistry, 279(8), 6911-6920, 2004; cited from earlier work
angiogenesis = conditions: J. Biological Chemistry, 279(8), 6911-6920, 2004; cited from earlier work
[1] = system: human retinal pigment epithelial (hRPE) cells; conditions: IOVS, 43(9), 3117-3124, 2002; cited from earlier work
[2] = target: farnesyl-protein transferase (Homo sapiens, UniProt P49356); conditions: in vitro; cited from earlier work
[3] = animal test, J. Toxicol. Pub. Health, 2003, 19, 259-266; cited from earlier work
splenocytes = assay: Splenocyte proliferation by [3H]-thymidine after LPS or ConA stimulation; assay type: cell-based, mouse; conditions: splenocytes of treated mice stimulated with ConA, 48 hours, FIG. 3B
Protocol: On the other hand, 2×10^5 splenocytes were aliquotted into a 96-well plate, stimulated with a cell proliferation inducer, LPS (lipopolysaccharide) or ConA (concanavalin A), and cultured for 48 hours. 1 μCi of [^3H]-thymidine was added to each well, followed by incubation for 6 hours. Cells were harvested on a nitrocellulose membrane, and radiation activity was measured using a beta scintillation counter (Wallac, Turku, Finland) to investigate proliferation ability of splenocytes.

[4] = system: H-ras 12V-overexpressing mouse; assay: Splenocyte number in H-ras-transgenic mouse; assay type: in vivo; conditions: 50 mg/kg i.p. once every two days for 10 weeks, Tg mouse vs control group (NTg), FIG. 3A
Protocol: A neonatal […] H-ras 12V-overexpressing mouse (KCTC 10318 BP) was intraperitoneally administered with 50 mg/kg of BCA and HCA (prepared by extracting the stem bark of C. cassia with organic solvents such as methanol and performing an isolation and purification process by various column chromatography methods) for ten weeks once every two days. Six months after birth, the spleen was excised from the mouse, and a single cell suspension was prepared. Red blood cells were removed from the single cell suspension using a RBC lysis solution (Sigma), and the number of splenocytes was counted under a microscope.

[5] = system: H-ras 12V-overexpressing mouse; assay: Effect of BCA on incidence of liver cancer in H-ras-overexpressing mouse (liver histology); assay type: in vivo
Protocol: A neonatal […] H-ras 12V-overexpressing mouse (KCTC 10318 BP) was intraperitoneally administered with 50 mg/kg of BCA (prepared by reacting 2′-hydroxy-cinnamaldehyde (HCA) isolated from the stem bark of C. cassia with benzoyl chloride in the presence of triethylamine) for ten weeks once every two days. Six months after birth, the liver tissue was excised from the mouse in an aseptic state, fixed with a formaldehyde solution, and embedded in paraffin. The resulting paraffin block was sectioned into a thickness of 4 μm using a microtome (LEICA Company), and tissue sections were attached onto slides. The tissue was then stained with hematoxylin/eosin and observed under a reverse phased microscope (Model: Bx 50, Olympus Company).

[6] = system: proliferative vitreoretinopathy (PVR) model in rabbits; conditions: IOVS, 43(9), 3117-3124, 2002; cited from earlier work
[7] = 50 mg/kg i.p. once every two days for ten weeks, six months after birth

Row | Compound | inhibition of tumor cell growth (tumor cell growth) | inhibition of angiogenesis (angiogenesis) | apoptosis in hRPE cells [1] | inhibition of farnesyl-protein transferase [2] | toxicity in vivo [3] | T cell response (splenocyte proliferation) (splenocytes) | cell number in the spleen (splenocyte number) [4] | cell number in the spleen (splenocyte number) ([4]; listed as BSA) | portion progressed to cancer in the liver ([5]; 50 mg/kg i.p. once every two days for ten weeks from 4 months old, liver at six months, vs control FIG. 1A) | number of immune cells in the liver [5, 7] | tumor progression to liver cancer [5, 7] | antiproliferative effect in PVR model [6]
1 | O=C/C=C/c1ccccc1OC(=O)c1ccccc1 [BCA, 2′-benzoyloxycinnamaldehyde] | inhibitory effects | inhibitory effects | induces apoptosis | inhibit; also recorded: inhibitory effects | no toxicity | highest T cell response | increased cell number | largest increase | remarkably reduced | increased | inhibited | antiproliferative effect
2 | O=CC=Cc1ccccc1O [HCA, 2′-hydroxycinnamaldehyde, reference compound] | inhibitory effects | inhibitory effects | – | inhibitory effects | – | – | increased cell number | – | – | – | – | –
